Tests used:
[1] = molecular target: T1, human recombinant dopamine D4.2 receptor (Homo sapiens, UniProt P21917, DEL265-296); assay: Measurement of affinity for dopamine D4 receptor ([3H]YM-09151-2 binding); conditions: [3H]YM-09151-2 0.1 nM, receptor expressed in CHO-K1 cells, 120 min at 25° C.
T1 construct: purchased PerkinElmer Life and Analytical Sciences, USA; host or cells: CHO-K1 cells
T1 sequence (P21917 with tags, fused parts or gaps DEL265-296): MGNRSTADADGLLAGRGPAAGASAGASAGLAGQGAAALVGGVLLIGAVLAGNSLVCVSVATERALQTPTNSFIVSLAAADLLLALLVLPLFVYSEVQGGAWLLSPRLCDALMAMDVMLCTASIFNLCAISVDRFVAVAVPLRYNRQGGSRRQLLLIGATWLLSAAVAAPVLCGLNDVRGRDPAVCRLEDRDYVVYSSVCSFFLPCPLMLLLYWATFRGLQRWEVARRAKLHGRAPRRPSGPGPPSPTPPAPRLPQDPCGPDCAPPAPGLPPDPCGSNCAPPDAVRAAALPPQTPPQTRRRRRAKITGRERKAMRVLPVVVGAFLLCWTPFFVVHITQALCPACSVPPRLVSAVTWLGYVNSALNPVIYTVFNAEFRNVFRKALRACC
Description: The affinities of the compounds for dopamine D4 receptor were measured by using human recombinant dopamine D4.2 receptor (PerkinElmer Life and Analytical Sciences, USA) expressed in CHO-K1 cells, and [^3H]YM-09151-2 (PerkinElmer) was used as a radioactive ligand.
50 mM Tris-HCl (pH 7.4) containing 120 mM NaCl, 5 mM KCl, 5 mM MgCl2 and 1 mM EDTA was used as a buffer solution for the analysis of receptor binding. [^3H] YM-09151-2 binding reactions were performed in a 96-well plate format.
For drug screening, a reaction mixture with a final volume of 0.25 mL was prepared by mixing a compound of the present invention, D4 receptor membrane (43 μg/well), [^3H] YM-09151-2 (0.1 nM), 50 mM Tris-HCl (pH 7.4) and the like. The reaction mixture was incubated for 120 min at 25° C., and then promptly passed through Wallac GF/C glass fiber filter (Wallac, Finland), which was already wetted in 0.5% PEI, by using Inotech harvester (Inotech) to terminate the reaction, and then washed with cold 50 mM Tris-HCl buffer solution. The filter was then covered with MeltiLex, sealed in a sample bag, and then dried in an oven. The radioactivity retained in the filter was finally counted using MicroBeta Plus, Wallac.
The affinity (IC50) of a compound for the receptor was calculated via nonlinear regression analysis of sigmoidal dose-response equation with the data obtained from three independent experiments (GraphPad Prism Program, San Diego, USA), which are carried out using 7-8 different concentrations of the compound in duplicate. Nonspecific binding was measured in the presence of 10 μM clozapine.

[2] = molecular target: T2, Human recombinant dopamine D3 receptor (Homo sapiens, UniProt P35462); assay: Measurement of affinity for dopamine D3 receptor ([3H]spiperone binding); conditions: [3H]spiperone 0.8 nM, CHO cell line, 60 min at 27° C.
T2 construct: purchased Euroscreen; host or cells: CHO cell line
Description: Human recombinant dopamine D2 and D3 receptors, which were expressed in CHO cell lines, respectively, were purchased from PerkinElmer and Euroscreen, respectively.
50 mM Tris-HCl (pH 7.4) containing […] and 1 mM EDTA was used as a buffer solution for the measurement of affinity for dopamine D2 receptor. 50 mM Tris-HCl (pH 7.4) containing 5 mM MgCl2, 5 mM EDTA, 5 mM KCl, 1.5 mM CaCl2 and 120 mM NaCl was used as a buffer solution for the measurement of affinity for dopamine D3 receptor. For measurement of non-specific binding, 10 μM haloperidol (haloperidol) was used.

[3] = molecular target: T3, 5-HT1A receptor (Homo sapiens, UniProt P08908); assay: Serotonin receptor binding experiment, 5-HT1A; design: species or system human or rat; conditions: [3H]8-OH-DPAT 0.5 nM, 60 min at 27° C.; read-out: Receptor affinity (IC50, nM) 5-HT1A
T3 sequence (P08908 1-422): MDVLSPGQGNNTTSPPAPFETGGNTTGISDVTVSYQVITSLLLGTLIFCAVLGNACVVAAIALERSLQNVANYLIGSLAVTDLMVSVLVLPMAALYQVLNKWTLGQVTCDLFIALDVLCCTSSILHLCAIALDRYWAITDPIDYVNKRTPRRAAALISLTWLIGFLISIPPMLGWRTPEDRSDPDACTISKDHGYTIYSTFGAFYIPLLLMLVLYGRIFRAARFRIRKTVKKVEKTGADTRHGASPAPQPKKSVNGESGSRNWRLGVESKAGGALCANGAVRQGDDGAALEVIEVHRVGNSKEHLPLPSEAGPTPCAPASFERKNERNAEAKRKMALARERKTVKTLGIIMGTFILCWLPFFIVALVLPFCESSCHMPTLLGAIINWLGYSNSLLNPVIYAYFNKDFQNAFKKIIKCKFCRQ
Description: (§1) The measurement of affinity for serotonin 5-HT receptor family was performed according to the experimental conditions as specified in Table 2 below using the method same as in Experimental Example 1 above.

[4] = molecular target: 5-HT7 receptor (Homo sapiens, UniProt P34969); assay: Serotonin receptor binding experiment, 5-HT7; design: species or system human or rat; conditions: [3H]LSD 3 nM, 90 min at 27° C.; read-out: Receptor affinity (IC50, nM) 5-HT7
Description: as §1

[5] = tested on: apomorphine-induced cage climbing in mice; assay: Apomorphine-induced climbing behavior in mice; format: in vivo; conditions: ip 30 min prior to apomorphine (1 mg/kg, sc); for ED50: Mus musculus, read-out: Inhibitory effects on apomorphine-induced climbing behavior ED50 (mg/kg, ip)
Description: When mice were treated with apomorphine (1 mg/kg, sc), a potent dopamine receptor agonist, and were put into cylindrical cages (diameter, 12 cm/height, 14 cm) with the floor and wall consisting of metal bars and covered with a lid, they begin to perform repeatedly a psychotic behavior of ‘cage climbing’. Their climbing behaviors were monitored every 10 min for 30 min and scored by 4-point rating scale (0˜3 points) depending on the extent of the behavior (Costentin, J. et al., Nature 1975, 257, 405-7; Protais, P. et al., Psychopharmacology 1976, 50, 1-6).
The compounds were injected intraperitoneally into mice 30 min prior to apomorphine administration. The inhibitory effects of the compounds against control group were measured and each ED50 was calculated therefrom.

[6] = Rotarod deficit in mice; format: in vivo; conditions: mouse, in vivo, ip, mice, rod rotating at 6 rpm, 30-120 min after administration
Description: (§2) Each mouse was administered with a test drug, and then placed on a 1 inch diameter knurled plastic rod rotating at 6 rpm (Ugo-Basile, Milano, Italy), and the rotarod deficit (%) was obtained by counting the number of mice fallen from the rotating rod within 1 min at 30, 60, 90, and 120 min after the administration of the drug.

[7] = tested on: rotarod deficit in mice; assay: Rotarod deficit in mice; format: in vivo; conditions: for Rotarod deficit TD50 (mg/kg, ip): mice, rod rotating at 6 rpm, 30-120 min after administration; for rotarod deficit TD50 as times of ED50 for antipsychotic efficacy: mouse, in vivo, ip
Description: as §2

5-HT7 receptor, sequence (P34969 whole entry): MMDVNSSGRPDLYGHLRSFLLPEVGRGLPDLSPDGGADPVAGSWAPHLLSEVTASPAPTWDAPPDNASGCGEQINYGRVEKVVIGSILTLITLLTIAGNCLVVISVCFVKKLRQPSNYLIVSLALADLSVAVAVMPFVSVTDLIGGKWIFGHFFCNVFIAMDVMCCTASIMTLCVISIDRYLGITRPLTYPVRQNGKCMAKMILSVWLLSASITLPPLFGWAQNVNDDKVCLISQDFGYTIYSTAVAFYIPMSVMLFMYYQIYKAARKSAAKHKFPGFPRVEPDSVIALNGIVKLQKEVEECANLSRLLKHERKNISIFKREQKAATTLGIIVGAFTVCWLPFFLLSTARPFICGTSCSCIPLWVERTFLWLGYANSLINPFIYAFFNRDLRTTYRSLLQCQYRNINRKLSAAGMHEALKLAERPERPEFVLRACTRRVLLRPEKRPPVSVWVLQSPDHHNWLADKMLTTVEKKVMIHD
T2 sequence (P35462 whole entry): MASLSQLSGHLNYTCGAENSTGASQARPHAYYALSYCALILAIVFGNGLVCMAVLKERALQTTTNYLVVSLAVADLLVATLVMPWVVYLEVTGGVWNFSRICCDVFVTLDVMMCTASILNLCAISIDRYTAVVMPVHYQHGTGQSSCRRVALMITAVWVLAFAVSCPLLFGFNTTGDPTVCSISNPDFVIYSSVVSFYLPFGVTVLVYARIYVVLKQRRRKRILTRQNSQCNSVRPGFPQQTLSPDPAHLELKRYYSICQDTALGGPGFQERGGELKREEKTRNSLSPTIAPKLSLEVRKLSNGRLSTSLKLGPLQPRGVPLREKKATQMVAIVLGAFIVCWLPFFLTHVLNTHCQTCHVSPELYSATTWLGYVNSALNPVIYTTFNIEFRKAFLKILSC

| SMILES | IC50 [1] | IC50 [2] | IC50 [3] | IC50 [4] | ED50 [5] | Inhibitory effects on apomorphine-induced climbing behavior ED50 (mg/kg, ip) [5] | TD50 [6] | Rotarod deficit TD50 (mg/kg, ip) [7] | rotarod deficit TD50 as times of ED50 for antipsychotic efficacy [7] |
| --- | --- | --- | --- | --- | --- | --- | --- | --- | --- |
| CCCc1cc(CCCN2CCN(c3ccccc3)CC2)n(-c2ccccc2)n1 [Compound 155, 1-phenyl-4-(3-(1-phenyl-3-propyl-1H-pyrazol-5-yl)propyl)piperazine] | 5.9 nM | 461 nM | 109 nM | 259 nM | 8.8 to 14.5 mg/kg | 10.7 mg/kg | 20 to 50 mg/kg | 28.5 mg/kg | 2.2-5 times |
| CCCc1cc(CCCN2CCN(c3ccccc3F)CC2)n(-c2ccccc2)n1 [Compound 156, 1-(2-fluorophenyl)-4-(3-(1-phenyl-3-propyl-1H-pyrazol-5-yl)propyl)piperazine] | 3.5 nM | 87 nM | 126 nM | 313 nM | 8.8 to 14.5 mg/kg | 9.6 mg/kg | 20 to 50 mg/kg | 26.0 mg/kg | 2.2-5 times |
| CCCc1cc(CCCN2CCN(c3ccc(C)c(C)c3)CC2)n(-c2ccccc2)n1 [Compound 159, 1-(3,4-dimethylphenyl)-4-(3-(1-phenyl-3-propyl-1H-pyrazol-5-yl)propyl)piperazine] | 1.3 nM | 131 nM | 413 nM | 195 nM | 8.8 to 14.5 mg/kg | 9.1 mg/kg | 20 to 50 mg/kg | 35.3 mg/kg | 2.2-5 times |
| CCCc1cc(CCCN2CCN(c3cccc(C)c3C)CC2)n(-c2ccccc2)n1 [Compound 160, 1-(2,3-dimethylphenyl)-4-(3-(1-phenyl-3-propyl-1H-pyrazol-5-yl)propyl)piperazine] | 2.9 nM | 229 nM | 50 nM | 84 nM | 8.8 to 14.5 mg/kg | 10.6 mg/kg | 20 to 50 mg/kg | 24.6 mg/kg | 2.2-5 times |
| CC(C)c1cc(CCCN2CCN(c3ccccc3F)CC2)n(-c2ccccc2)n1 [Compound 177, 1-(2-fluorophenyl)-4-(3-(1-phenyl-3-isopropyl-1H-pyrazol-5-yl)propyl)piperazine] | 8 nM | 687 nM | 37 nM | 252 nM | 8.8 to 14.5 mg/kg | 8.8 mg/kg | 20 to 50 mg/kg | 19.4 mg/kg | 2.2-5 times |
